The subject of this assay is BDF1 mice, P388 leukemia ip, median survival T/C. The experiment in a line: NCI In Vivo Anticancer Drug Screen. Data for tumor model P388 Leukemia (intraperitoneal) in B6D2F1 (BDF1) mice. The conditions noted are these: endpoint: median survival time, higher = longer survival. The procedure: The antitumor activity of compounds was measured in mice bearing transplantable tumors. Survival or tumor size were measured and the results are expressed as the measurement made in the treated group (T) divided by the measurement made in the vehicle treated control group (C). The tumor model used in this assay is P388 Leukemia (intraperitoneal) in B6D2F1 (BDF1) mice

[1] abbreviates: dose: 100.0 mg/kg/injection, schedule: Q01DX009 (ip), vehicle: other.
The mark [2] stands for this setting: dose: 200.0 mg/kg/injection, schedule: Q01DX009 (ip), vehicle: other.
Setting [3] is: dose: 400.0 mg/kg/injection, schedule: Q01DX009 (ip), vehicle: other.
Where [4] appears, read: dose: 50.0 mg/kg/injection, schedule: Q01DX009 (ip), vehicle: Klucel (hydroxypropylcellulose) (HPC).
[5] abbreviates: dose: 50.0 mg/kg/injection, schedule: Q04DX003 (ip), vehicle: Klucel (hydroxypropylcellulose) (HPC).
The mark [6] stands for this setting: dose: 100.0 mg/kg/injection, schedule: Q01DX009 (ip), vehicle: Klucel (hydroxypropylcellulose) (HPC).
The mark [7] stands for this setting: dose: 100.0 mg/kg/injection, schedule: Q04DX003 (ip), vehicle: Klucel (hydroxypropylcellulose) (HPC).
[8] abbreviates: dose: 200.0 mg/kg/injection, schedule: Q04DX003 (ip), vehicle: Klucel (hydroxypropylcellulose) (HPC).
Setting [9] is: dose: 25.0 mg/kg/injection, schedule: Q01DX009 (ip), vehicle: water.
Setting [10] is: dose: 50.0 mg/kg/injection, schedule: Q01DX009 (ip), vehicle: water.
[11] abbreviates: dose: 50.0 mg/kg/injection, schedule: Q01DX009 (ip), vehicle: saline with Tween-80.
Setting [12] is: dose: 100.0 mg/kg/injection, schedule: Q01DX009 (ip), vehicle: saline with Tween-80.
Setting [13] is: dose: 200.0 mg/kg/injection, schedule: Q01DX009 (ip), vehicle: saline with Tween-80.
Setting [14] is: dose: 6.25 mg/kg/injection, schedule: Q01DX009 (ip), vehicle: water.
Where [15] appears, read: dose: 12.5 mg/kg/injection, schedule: Q01DX009 (ip), vehicle: saline with Tween-80.
[16] abbreviates: dose: 25.0 mg/kg/injection, schedule: Q01DX009 (ip), vehicle: saline with Tween-80.

The structures appear in SMILES notation. Where “and” joins values, the source holds several entries; their conditions need not be identical. Equal entries are not always repeated. Toxic doses and inconclusive results are not listed.

For `NC(CSCc1ccccc1)(CSCc1ccccc1)C(=O)O`, the T/C is 103 % of control (dose: 12.5 mg/kg/injection, schedule: Q01DX009 (ip), vehicle: other); 122 % of control (dose: 25.0 mg/kg/injection, schedule: Q01DX009 (ip), vehicle: other); 97 % of control and 110 % of control (dose: 50.0 mg/kg/injection, schedule: Q01DX009 (ip), vehicle: other); 117 % of control under setting [1]; 96 % of control under setting [2]; 94 % of control under setting [3].
`NC=NC(CCC(=O)O)C(=O)O` (centres undefined): the T/C is 90 % of control (dose: 12.5 mg/kg/injection, schedule: Q01DX005 (ip), vehicle: saline); 96 % of control (dose: 25.0 mg/kg/injection, schedule: Q01DX005 (ip), vehicle: saline); 91 % of control (dose: 50.0 mg/kg/injection, schedule: Q01DX005 (ip), vehicle: saline).
Turning to `N=C(N)SCc1cccc([N+](=O)[O-])c1`, the T/C is, setting by setting: (dose: 12.5 mg/kg/injection, schedule: Q01DX009 (ip), vehicle: Klucel (hydroxypropylcellulose) (HPC)) 97 % of control; (dose: 25.0 mg/kg/injection, schedule: Q01DX009 (ip), vehicle: Klucel (hydroxypropylcellulose) (HPC)) 103 % of control; under setting [4], 110 % of control.
For `O=Cc1ccccc1B(O)O`, the T/C by setting is: under setting [4], 108 % of control and 109 % of control; under setting [5], 92 % of control; under setting [6], 108 % of control and 118 % of control; under setting [7], 100 % of control; under setting [8], 107 % of control.
Turning to `O=C(O)C1(C(=O)O)CCC1.[NH2-].[NH2-].[Pt+2]`, the T/C (dose: 43.2 mg/kg/injection, schedule: Q01DX001 (ip), vehicle: saline) was 120 % of control.
Consider `N=C(N)c1ccc(C(=N)N)cc1`, for which the T/C runs as follows: under setting [9], 100 % of control; under setting [10], 94 % of control; (dose: 50.0 mg/kg/injection, schedule: Q04DX003 (ip), vehicle: water) 95 % of control; (dose: 100.0 mg/kg/injection, schedule: Q01DX009 (ip), vehicle: water) 100 % of control; (dose: 100.0 mg/kg/injection, schedule: Q04DX003 (ip), vehicle: water) 100 % of control; (dose: 200.0 mg/kg/injection, schedule: Q04DX003 (ip), vehicle: water) 100 % of control.
With `Cn1c(O)c(N=NC(N)=S)c2ccccc21`, the T/C (dose: 10.0 mg/kg/injection, schedule: Q01DX009 (ip), vehicle: saline with Tween-80) was 102 % of control; the T/C (dose: 20.0 mg/kg/injection, schedule: Q01DX009 (ip), vehicle: saline with Tween-80) is 98 % of control; the T/C (dose: 40.0 mg/kg/injection, schedule: Q01DX009 (ip), vehicle: saline with Tween-80) was 115 % of control; the T/C under setting [11] is 90 % of control; the T/C (dose: 80.0 mg/kg/injection, schedule: Q01DX009 (ip), vehicle: saline with Tween-80) is 120 % of control; the T/C under setting [12] is 90 % of control. For the same compound, the T/C was 113 % of control (dose: 160.0 mg/kg/injection, schedule: Q01DX009 (ip), vehicle: saline with Tween-80) and 90 % of control under setting [13].
Turning to `COC(=O)CNC(=O)C(Cc1ccc(OCc2ccccc2)cc1)NC(=O)OC(C)(C)C` (centres undefined), the T/C (dose: 100.0 mg/kg/injection, schedule: Q04DX003 (ip), vehicle: saline with Tween-80) was 105 % of control; the T/C (dose: 200.0 mg/kg/injection, schedule: Q04DX003 (ip), vehicle: saline with Tween-80) was 120 % of control; the T/C (dose: 400.0 mg/kg/injection, schedule: Q04DX003 (ip), vehicle: saline with Tween-80) was 120 % of control.
Take `CC(=O)OC1C=COC(C)C1OC(C)=O` (centres undefined): the T/C is 98 % of control (dose: 50.0 mg/kg/injection, schedule: Q01DX009 (ip), vehicle: saline); 114 % of control (dose: 100.0 mg/kg/injection, schedule: Q01DX009 (ip), vehicle: saline); 100 % of control (dose: 100.0 mg/kg/injection, schedule: Q04DX003 (ip), vehicle: saline); 99 % of control (dose: 200.0 mg/kg/injection, schedule: Q04DX003 (ip), vehicle: saline); 100 % of control (dose: 400.0 mg/kg/injection, schedule: Q04DX003 (ip), vehicle: saline).
As to `BrC1c2cccc3cccc(c23)C1Br` (centres undefined), the T/C by setting is: under setting [12], 150 % of control; under setting [13], 88 % of control.
For `COc1cccc2c1C(=O)c1c(O)c3c(c(O)c1C2=O)C[C@@](O)(/C(CO)=N/NC(=O)c1ccc(Cl)c(Cl)c1)C[C@@H]3OC1CC(N)C(O)C(C)O1` (some centres undefined), the T/C reads like this: (dose: 0.78 mg/kg/injection, schedule: Q01DX009 (ip), vehicle: water) 94 % of control; (dose: 3.12 mg/kg/injection, schedule: Q01DX009 (ip), vehicle: water) 116 % of control and 217 % of control; under setting [14], 121 % of control.
As to `O=C(CS)CS`, the T/C is 102 % of control under setting [14]; 102 % of control (dose: 12.5 mg/kg/injection, schedule: Q01DX009 (ip), vehicle: water); 93 % of control under setting [9]; 104 % of control under setting [10].
Take `Cc1cc(-c2ccccc2)[n+](C)n1C`: the T/C by setting is: under setting [15], 98 % of control; under setting [16], 118 % of control.
On to `Clc1ccc(-c2noc(CN3CCCCC3)n2)cc1`, for which the T/C was 88 % of control under setting [11] and 88 % of control under setting [12].
For the compound `COc1ccc(CC2c3cc(OC)c(OC)cc3CCN2C(=O)c2ccccc2)cc1OC` (centres undefined), the T/C is, setting by setting: (dose: 50.0 mg/kg/injection, schedule: Q01DX005 (ip), vehicle: saline with Tween-80) 91 % of control; (dose: 100.0 mg/kg/injection, schedule: Q01DX005 (ip), vehicle: saline with Tween-80) 91 % of control.
For the compound `CCOC(CNC(=O)OCc1ccccc1)OCC`, the T/C was 105 % of control under setting [6]; 100 % of control (dose: 200.0 mg/kg/injection, schedule: Q01DX009 (ip), vehicle: Klucel (hydroxypropylcellulose) (HPC)); 105 % of control (dose: 400.0 mg/kg/injection, schedule: Q01DX009 (ip), vehicle: Klucel (hydroxypropylcellulose) (HPC)).
On to `CCOC(=O)/C(C#N)=C1\CCc2cc(OC)ccc21`, for which the T/C was 92 % of control (dose: 100.0 mg/kg/injection, schedule: Q01DX001 (ip), vehicle: saline with Tween-80); 88 % of control (dose: 200.0 mg/kg/injection, schedule: Q01DX001 (ip), vehicle: saline with Tween-80); 88 % of control (dose: 400.0 mg/kg/injection, schedule: Q01DX001 (ip), vehicle: saline with Tween-80).
For the compound `Cc1noc2ncnc(NCCCN(C)C)c12`, the T/C runs as follows: under setting [11], 99 % of control; under setting [12], 99 % of control; under setting [13], 102 % of control.
Consider `FC(F)(Cl)c1nc2nc(Cl)c(Cl)nc2[nH]1`, for which the T/C was 100 % of control (dose: 266.0 mg/kg/injection, schedule: Q04DX003 (ip), vehicle: other); 108 % of control (dose: 400.0 mg/kg/injection, schedule: Q04DX003 (ip), vehicle: other); 108 % of control (dose: 600.0 mg/kg/injection, schedule: Q04DX003 (ip), vehicle: other).
On to `COc1ccc2c(c1OC)C(=O)NC2=O`, for which the T/C was 108 % of control (dose: 50.0 mg/kg/injection, schedule: Q01DX008 (ip), vehicle: Klucel (hydroxypropylcellulose) (HPC)); 100 % of control under setting [5]; 88 % of control (dose: 100.0 mg/kg/injection, schedule: Q01DX008 (ip), vehicle: Klucel (hydroxypropylcellulose) (HPC)); 100 % of control under setting [7]; 90 % of control under setting [8].
Consider `COC(=O)CCCc1c[nH]c2ccccc12`, for which the T/C runs as follows: under setting [1], 103 % of control; under setting [2], 94 % of control; under setting [3], 86 % of control.
Turning to `CSc1nc(SC)c2[nH]cnc2n1`, the T/C is 87 % of control (dose: 3.13 mg/kg/injection, schedule: Q01DX009 (ip), vehicle: saline with Tween-80); 99 % of control (dose: 6.25 mg/kg/injection, schedule: Q01DX009 (ip), vehicle: saline with Tween-80); 91 % of control under setting [15]; 94 % of control under setting [16].

These data come from PubChem BioAssay AID328 (DTP/NCI, 2004).
